Measured values published in patent US6716824B1, “Treatment of pancreatic adenocarcinoma by cytotoxic gene therapy” (priority 1999, dated 2004).

What was measured:
NIT-1 cell tumors = experiment: Treatment of β-cell adenomas (insulinomas) in vivo, ICR/scid mice injected IP with NIT-1 cells; conditions: ICR/scid mice with NIT-1 cells; genes via liposomes IP day 31, GCV 40 mg/kg IP seven days
Procedure: To estimate tumor growth blood glucose was measured from the tail vein using a glucometer every other day.
Twenty-seven female ICR/scid mice, age 6-10 weeks old underwent intraperitoneal injections of 5×10^6 NIT-1 cells and nine female ICR/scid mice, age 6-10 weeks old underwent intraperitoneal injections of PBS. At day 31, the mice were randomized to receive either the RIP-tk gene, the RIPlacZ gene, or nothing. The RIP-lac-Z construct served both as a control and to localize gene expression. The genes were delivered via liposomes IP (liposomes provided by Dr. Nancy Smyth-Templeton Center for Gene Therapy and Department of Cell Biology, Baylor College of Medicine) and mixed as described (Smyth-Templeton N, et al., 15 Nature Biotechnology 647-652 (1997)). Six mice were randomized to receive the RIP-tk gene followed by seven days of GCV (40 mg/kg IP). Six mice were randomized to receive the RIP-lacZ gene followed by seven days of GVC (40 mg/kg IP). Six mice were randomized to receive PBS followed by seven days of GCV (40 mg/kg IP). Six mice that were inoculated with NIT-1 cells were randomized to receive seven days of PBS. […]
In another murine hypoglycemic tumor model, 5×10^6 NIT-1 cells (or PBS) were injected intraperitoneally (IP) into ICR/scid mice (n=12 per group). […] Blood glucose values, animal survival, and blue cells after X-gal staining were recorded.

CAPAN-1 cells = experiment: Ganciclovir dose response curve, untransfected cells, MTS assay; type: cell-based, human; conditions: untransfected CAPAN-1 cells
Procedure: (§1) PANC-1, CAPAN-1 MIA-1 and A549 cells were plated into a ninety-six well plate at a density of 5,000 cells per well and given between 0 to 500 μg/ml of GCV to determine a dose response curve to GCV alone. The cells were treated for five days and cell viability was ascertained with an MTS assay. Results were plotted on a graph as OD 490 nm vs. GCV concentration.

A549 cells = experiment: as above; type: cell-based, human; conditions: five days
Procedure: as §1

MIA-1 cells = experiment: as above; type: cell-based, human; conditions: untransfected MIA-1 cells, five days
Procedure: as §1

PANC-1 cells = experiment: as above; type: cell-based, human; conditions: untransfected PANC-1 cells
Procedure: as §1

PANC-1 tumors = experiment: Treatment of human ductal pancreatic adenocarcinoma tumors in vivo, ICR/scid mice injected ip with PANC-1 cells; set-up: species or system mouse; conditions: PANC-1 tumors in ICR/scid mice, with GCV 40 mg/kg ip 7 days
Procedure: The effectiveness of RIPlacZ and RIP-tk gene constructs against PANC-1 was then studied in vivo using a SCID mouse model. SCID mice are immunodeficient and will not reject a human pancreatic cancer cell line. PANC-1 cells were injected intraperitoneally and tumors were visible by day 24. Once the model was established in the laboratory, the mice were treated with the gene therapy beginning at day 24 post-tumor-injection.
Six mice received seven days of PBS IP.
Three additional mice inoculated with PANC-1 cells received the RIPlacZ gene and were sacrificed thirty-six hours later.
Additional injected mice with tumors (n=3) received RIPlacZ and their tissues were fixed and stained with X-gal. Study endpoints consisted of monitoring tumor size and the presence of blue cells after X-gal staining.

NIT-1 cells = experiment: Ganciclovir dose response curve, untransfected cells, MTS assay; type: cell-based, mouse; conditions: untransfected NIT-1 cells
Procedure: (§2) Dose response curves with GCV for untransfected NIT-1 and F9 (control) cells were performed prior to cytoxicity studies with genetic constructs. NIT-1 cells were plated into a ninety-six well plate at a density of 5,000 cells per well and treated with GCV (0.1 to 2.5 μg/ml) to determine a dose response curve to GCV alone. The cells were treated daily for five days and cell viability was ascertained with an MTS assay. […] The GCV toxicity dose response curve for F9 cells resembled other cell lines (FIG. I B). […] Note that at concentrations of GCV 0.25 μg/ml and higher a significant decrease in cell survival is observed, n=8, *p<0.05, Unpaired Student t-test.

F9 cells = experiment: as above; type: cell-based, mouse; conditions: n=8
Procedure: as §2

## Nc1nc(O)c2ncn(COC(CO)CO)c2n1 [GCV, Ganciclovir]
NIT-1 cell tumors
  blood glucose levels: rapid decline in blood glucose levels
CAPAN-1 cells
  maximum dose of GCV one can use to treat cells in culture: 15 µg/mL
CAPAN-1 cells; five days
  GCV dosage significantly decreasing cell OD 490: greater than 20 μg/ml
A549 cells
  GCV dosage significantly decreasing cell OD 490: greater than 50 μg/ml
MIA-1 cells
  GCV dosage significantly decreasing cell OD 490: greater than 20 μg/ml
PANC-1 cells
  maximum dose of GCV one can use to treat cells in culture: 20 µg/mL
PANC-1 cells; five days, n=8
  GCV dosage significantly decreasing cell OD 490: greater than 50 μg/ml
PANC-1 tumors
  tumor burden / tumor size (in words): developed large peri-pancreatic intraperitoneal tumors
NIT-1 cells
  maximum dose of GCV one can use to treat cells in culture: 0.20 µg/mL
F9 cells
  GCV toxicity dose response (in words): resembles that of other published cell lines
